Measurements taken from US6908913B2, “Carbapenem derivatives” (Meiji Seiki Kaisha, Ltd., priority 2000, dated 2005).
In brackets after ≈: the same amount, converted by molar mass.

Tests used:
K. pneumoniae PCI602 = assay: Antibiotic activities (MIC), agar dilution; type: cell-based; conditions: Klebsiella pneumoniae, Sensitivity Disk agar-N+5% Horse blood, inoculant 10^6 CFU/ml, read-out: minimum inhibiting concentration (MIC)
Procedure: (§1) The minimum inhibiting concentrations (MIC, μg/ml) of representative compounds among the novel carbapenem derivatives according to the present invention to various pathogenic bacteria were measured in accordance with the method described in CHEMOTHERAPY, vol. 16, No. 1, 99, 1968. The culture medium for measurement was Sensitivity Disk agar-N+5% Horse blood, and the amount of inoculants was 10^6 CFU/ml.

[1] = system: S. aureus M126 HR (methicillin-hyperresistant strain); assay: Antibiotic activities (MIC), agar dilution; type: cell-based; conditions: Staphylococcus aureus, Sensitivity Disk agar-N+5% Horse blood, inoculant 10^6 CFU/ml, read-out: minimum inhibiting concentration (MIC)
Procedure: as §1

[2] = system: S. pneumoniae PRC9 (penicillin-hyperresistant strain); assay: Antibiotic activities (MIC), agar dilution; type: cell-based; conditions: Streptococcus pneumoniae, Sensitivity Disk agar-N+5% Horse blood, inoculant 10^6 CFU/ml, read-out: minimum inhibiting concentration (MIC)
Procedure: as §1

E. coli NIHJ JC-2 = assay: Antibiotic activities (MIC), agar dilution; type: cell-based; conditions: Escherichia coli, NIHJJC2, Sensitivity Disk agar-N+5% Horse blood, inoculant 10^6 CFU/ml, read-out: minimum inhibiting concentration (MIC)
Procedure: as §1

S. aureus 209P JC-1 = assay: Antibiotic activities (MIC), agar dilution; type: cell-based; conditions: Staphylococcus aureus, Sensitivity Disk agar-N+5% Horse blood, inoculant 10^6 CFU/ml, read-out: minimum inhibiting concentration (MIC)
Procedure: as §1

[3] = system: S. aureus M126 (methicillin-hyperresistant strain); assay: Antibiotic activities (MIC), agar dilution; type: cell-based; conditions: Staphylococcus aureus, Sensitivity Disk agar-N+5% Horse blood, inoculant 10^6 CFU/ml, read-out: minimum inhibiting concentration (MIC)
Procedure: as §1

B. catarrhalis W-0500 = assay: Antibiotic activities (MIC), agar dilution; type: cell-based; conditions: Moraxella catarrhalis, W0500, Sensitivity Disk agar-N+5% Horse blood, inoculant 10^6 CFU/ml, read-out: minimum inhibiting concentration (MIC)
Procedure: as §1

H. influenzae PRC44 = assay: Antibiotic activities (MIC), agar dilution; type: cell-based; conditions: Haemophilus influenzae, Sensitivity Disk agar-N+5% Horse blood, inoculant 10^6 CFU/ml, read-out: minimum inhibiting concentration (MIC)
Procedure: as §1

[4] = system: Staphylococcus aureus MF126 (MRSA); assay: Therapeutic effect on mice subjected to general infection with MRSA; type: in vivo; conditions: cyclophosphamide-treated mice, subcutaneous with cilastatin 2 and 4 hours after infection, survival rate on seventh day
Procedure: The therapeutic effect of representative compounds among the novel carbapenem derivatives according to the present invention on mice subjected to general infection with MRSA were assayed by the following method, and the results are shown in Table 2. Specifically, cyclophosphamide (200 mg/kg) was administered intraperitoneally to mice (n=8), and, four days after the administration of cyclophosphamide, Staphylococcus aureus MF126 (MRSA) was inoculated intraperitoneally to infect the mice with MRSA. Cilastatin (1 mg/mouse) and the carbapenem compound in an indicated amount were subcutaneously administered two hours and four hours after the infection. ED50 was calculated based on the survival rate on the seventh day after the infection.

[5] = type: in vivo; conditions: intravenously, 1,000 mg/kg, ICR male mice, three mice per group
Procedure: The compound of Example 1 was administered intravenously to mice (ICR, male, each group consisting of three mice) in an amount of 2,000 mg/kg.
The compound of Example 2 was administered intravenously to mice (ICR, male, each group consisting of three mice) in an amount of 1,000 mg/kg.

[6] = Amount of inoculant: 2.8 × 10^6 CFU/mouse
[7] = Amount of inoculant: 5.9 × 10^6 CFU/mouse

Structure (SMILES)	MIC (K. pneumoniae PCI602) [µg/mL]	MIC [1] [µg/mL]	MIC [2] [µg/mL]	MIC (E. coli NIHJ JC-2) [µg/mL]	MIC (S. aureus 209P JC-1) [µg/mL]	MIC [3] [µg/mL]	MIC (B. catarrhalis W-0500) [µg/mL]	MIC (H. influenzae PRC44) [µg/mL]	ED50 [4, 6] [mg/mouse]	survival in acute toxicity test [5]	ED50 ([4]; Amount of inoculant: 2.5 × 10^6 CFU/mouse) [mg/mouse]	ED50 ([4]; Amount of inoculant: 2.9 × 10^6 CFU/mouse) [mg/mouse]	ED50 [4, 7] [mg/mouse]
CC(=O)c1ncn2cc(C3=C(C(=O)[O-])N4C(=O)[C@H]([C@@H](C)O)[C@H]4[C@H]3C)sc12.[Na+] [Compound A, Sodium (1S,5R,6S)-2-(7-acetylimidazo[5,1-b]thiazol-2-yl)-6-((1R)-1-hydroxyethyl)-1-methyl-1-carbapen-2-em-3-carboxylate, reference compound]	0.25	8	0.063	0.125	0.016	1	0.031	0.031	–	–	–	–	–
C[C@@H](O)[C@H]1C(=O)N2C(C(=O)[O-])=C(c3cn4cnc(C(=O)c5ccc[n+](CC(N)=O)c5)c4s3)[C@H](C)[C@H]12 [Example 2, (1S,5R,6S)-2-[7-(1-Carbamoylmethylpyridinium-3-yl)carbonylimidazo[5,1-b]thiazol-2-yl]-6-((1R)-1-hydroxyethyl)-1-methyl-1-carbapen-2-em-3-carboxylate]	0.063 (≈ 0.127 µM)	2 (≈ 4.04 µM)	0.031 (≈ 0.0626 µM)	0.031 (≈ 0.0626 µM)	< 0.008	0.5 (≈ 1.01 µM)	0.016 (≈ 0.0323 µM)	0.031 (≈ 0.0626 µM)	0.07	all of the mice survived	–	–	–
C[C@@H](O)[C@H]1C(=O)N2C(C(=O)O)=C(c3cn4cnc(C(=O)[C@@H]5CCCN5)c4s3)[C@H](C)[C@H]12 [Example 11, Sodium (1S,5R,6S)-6-((1R)-1-hydroxyethyl)-1-methyl-2-[7-((2S)-pyrrolidin-2-yl)carbonylimidazo[5,1-b]thiazol-2-yl]-1-carbapen-2-em-3-carboxylate]	–	–	–	–	–	–	–	–	0.25	–	–	–	–
C[C@@H](O)[C@H]1C(=O)N2C(C(=O)[O-])=C(c3cn4cnc(C(=O)c5cc(SCCN)c[n+](CC(=O)O)c5)c4s3)[C@H](C)[C@H]12 [Example 37, (1S,5R,6S)-2-[7-[5-(2-Aminoethyl)thio-1-carboxylmethylpyridinium-3-yl]carbonylimidazo[5,1-b]-thiazol-2-yl]-6-((1R)-1-hydroxyethyl)-1-methyl-1-carbapen-2-em-3-carboxylate]	–	–	–	–	–	–	–	–	–	–	0.139	–	–
C[C@@H](O)[C@H]1C(=O)N2C(C(=O)[O-])=C(c3cn4cnc(C(=O)c5ccc[n+](CCNS(N)(=O)=O)c5)c4s3)[C@H](C)[C@H]12 [Example 65, (1S,5R,6S)-6-((1R)-1-Hydroxyethyl)-1-methyl-2-[7-[1-(2-sulfamoylaminoethyl)pyridinium-3-yl]carbonylimidazo[5,1-b]thiazol-2-yl]-1-carbapen-2-em-3-carboxylate]	–	–	–	–	–	–	–	–	–	–	–	–	0.32
CN[C@H](CC(C)C)C(=O)N[C@H]1C(=O)N[C@@H](CC(N)=O)C(=O)N[C@H]2C(=O)N[C@H]3C(=O)N[C@H](C(=O)N[C@H](C(=O)O)c4cc(O)cc(O)c4-c4cc3ccc4O)[C@H](O)c3ccc(c(Cl)c3)Oc3cc2cc(c3O[C@@H]2O[C@H](CO)[C@@H](O)[C@H](O)[C@H]2O[C@H]2C[C@](C)(N)[C@H](O)[C@H](C)O2)Oc2ccc(cc2Cl)[C@H]1O [Vancomycin, reference compound]	–	–	–	–	–	–	–	–	0.50	–	–	–	0.71

The next lines start with results.

MIC (K. pneumoniae PCI602) [µg/mL]	MIC [1] [µg/mL]	MIC [2] [µg/mL]	MIC (E. coli NIHJ JC-2) [µg/mL]	MIC (S. aureus 209P JC-1) [µg/mL]	MIC [3] [µg/mL]	MIC (B. catarrhalis W-0500) [µg/mL]	MIC (H. influenzae PRC44) [µg/mL]	Structure (SMILES)	ED50 [4, 6] [mg/mouse]	survival in acute toxicity test [5]	ED50 ([4]; Amount of inoculant: 2.5 × 10^6 CFU/mouse) [mg/mouse]	ED50 ([4]; Amount of inoculant: 2.9 × 10^6 CFU/mouse) [mg/mouse]	ED50 [4, 7] [mg/mouse]
3.13	6.25	0.1	3.13	< 0.006	1.56	< 0.025	0.1	C[C@@H](O)[C@H]1C(=O)N2C(C(=O)[O-])=C(c3cn4cnc(C(=O)c5ccccc5)c4s3)[C@H](C)[C@H]12.[Na+] [Compound B, Sodium (1S,5R,6S)-2-(7-benzoylimidazo[5,1-b]thiazol-2-yl)-6-((1R)-1-hydroxyethyl)-1-methyl-1-carbapen-2-em-3-carboxylate, reference compound]	–	–	–	–	–
0.25 (≈ 0.835 µM)	64 (≈ 214 µM)	0.25 (≈ 0.835 µM)	0.125 (≈ 0.418 µM)	0.008 (≈ 0.0267 µM)	4 (≈ 13.4 µM)	0.063 (≈ 0.21 µM)	8 (≈ 26.7 µM)	C[C@@H](O)[C@H]1C(=O)N2C(C(=O)O)=C(SCCN=CN)C[C@H]12 [Compound C, Imipenem, reference compound]	–	–	–	–	–
1	4	0.031	1	< 0.008	1	0.016	0.031	C[C@@H](O)[C@H]1C(=O)N2C(C(=O)O)=C(c3cn4cnc(C(=O)c5cccnc5)c4s3)[C@H](C)[C@H]12 [Example 1, Sodium (1S,5R,6S)-6-((1R)-1-hydroxyethyl)-1-methyl-2-[7-(pyridin-3-yl)carbonylimidazo[5,1-b]thiazol 2-yl]-1-carbapen-2-em-3-carboxylate]	–	–	–	–	–
0.031 (≈ 0.0644 µM)	1 (≈ 2.08 µM)	0.031 (≈ 0.0644 µM)	0.031 (≈ 0.0644 µM)	0.008 (≈ 0.0166 µM)	0.25 (≈ 0.519 µM)	0.031 (≈ 0.0644 µM)	0.063 (≈ 0.131 µM)	C[C@@H](O)[C@H]1C(=O)N2C(C(=O)[O-])=C(c3cn4cnc(C(=O)c5ccc[n+](CC(N)=O)c5)c4s3)C[C@H]12 [Example 39, (5R,6S)-2-[7-(1-Carbamoylmethylpyridinium-3-yl)carbonylimidazo[5,1-b]thiazol-2-yl]-6-((1R)-1-hydroxyethyl)-1-carbapen-2-em-3-carboxylate]	–	–	–	0.02	–
